The data set in a line: systemic availability study in dogs, testosterone, RIA method (Example 40). It counts as in vivo. To be noted: female, bred hound, dog, plasma, other: buccal (film disc applied to the buccal mucosa), 0.8 mg per disc, mean of three dogs, buccal ½ inch disc of Example 39 film, 0.8 mg testosterone per disc, read-out: systemic plasma level, Mean. The source says: The films obtained via Examples 38 and 39 are die-cut in ½ inch diameter discs to be characterized and to be used for a systemic availability study in three dogs (20-25 kg spayed female bred hounds). One disc of the film to be evaluated is applied to the inside of the mouth on the buccal mucosa. A slight pressure is applied for 10 seconds. Then, the oral cavity is examined to assure adherence of the film to the mucosa and over the course of the study, to monitor the erosion of the discs. Using an indwelling jugular catheter, blood samples are collected at specific intervals. The serum is characterized by an ELISA assay in the case of albuterol sulfate and by an RIA method for the testosterone study.
After application of ½ inch diameter discs, systemic plasma levels obtained at different intervals are given in nanograms per milliliter for the mean of the three dogs.

The text below walks through data of patent publication US7579019B2, “Pharmaceutical carrier device suitable for delivery of pharmaceutical compounds to mucosal surfaces” (priority 1997, dated 2009).

With `C[C@]12CC[C@H]3[C@@H](CCC4=CC(=O)CC[C@@]43C)[C@@H]1CC[C@@H]2O` [testosterone], for the setting “time 0 minutes”, the concentration at 0 min was determined as 0 ng/mL. The concentration at 5 min (time 5 minutes) was 2.21 ng/mL. Further, the concentration at 10 min (time 10 minutes) was determined as 4.68 ng/mL. The concentration at 15 min (time 15 minutes) worked out at 3.81 ng/mL. Further, where the note is “time 30 minutes”, the concentration at 30 min amounted to 2.87 ng/mL. For the same compound, under “time 60 minutes”, the concentration at 60 min came to 3.73 ng/mL. Further, the concentration at 90 min (time 90 minutes) is 4.82 ng/mL. Under “time 120 minutes”, the concentration at 120 min came to 7.14 ng/mL. Further, where the note is “time 150 minutes”, the concentration at 150 min came to 3.2 ng/mL. In addition, where the note is “time 180 minutes”, the concentration at 180 min was determined as 0.62 ng/mL. In addition, the concentration at 240 min (time 240 minutes) amounted to 0.18 ng/mL. In addition, for the setting “time 360 minutes”, the concentration at 360 min was 0.12 ng/mL. Moreover, the concentration at 480 min (time 480 minutes) amounted to 0.02 ng/mL. Besides, where the note is “time 720 minutes”, the concentration at 720 min is 0.01 ng/mL.
